Values of other authors, collected in PMC5889410, “Design and Biological Evaluation of Antifouling Dihydrostilbene Oxime Hybrids” (Marine Biotechnology (New York, N.y.), 2018).
In brackets after ≈: the same amount, converted by molar mass.

Columns and labels:
Vibrio carchariae [1] = conditions: ref Hanssen et al. ([2014]); cited from earlier work
Vibrio proteolyticus [2] = conditions: ref Hanssen et al. ([2014]); cited from earlier work
[3] = system: Pseudoalteromonas elyakovii; conditions: ref Hanssen et al. ([2014]); cited from earlier work
microalgae = system: microalgae; design: method as in Hanssen et al. [2014]; conditions: ref Hanssen et al. [2014]; cited from earlier work
Vibrio harveyi [4] = conditions: ref Hanssen et al. ([2014]); cited from earlier work
Halomonas aquamarina [5] = conditions: ref Hanssen et al. ([2014]); cited from earlier work
[6] = system: Balanus improvisus cyprid larvae; conditions: B. improvisus, ref Hanssen et al. ([2014]), cited from earlier work
Vibrio harveyi [7] = conditions: ref Hanssen et al. ([2014]); cited from earlier work; remark: listed apart in the source
Cylindrotheca closterium [8] = conditions: ref Hanssen et al. ([2014]); cited from earlier work
Vibrio aestuarianus [9] = conditions: ref Hanssen et al. ([2014]); cited from earlier work
Cylindrotheca closterium [10] = conditions: ref Hanssen et al. ([2014]); cited from earlier work; remark: listed apart in the source
Vibrio carchariae [11] = conditions: ref Hanssen et al. ([2014]); cited from earlier work; remark: listed apart in the source
Halomonas aquamarina [12] = conditions: ref Hanssen et al. ([2014]); cited from earlier work; remark: listed apart in the source
Vibrio natriegens = conditions: ref Hanssen et al. ([2014]); cited from earlier work
Vibrio proteolyticus [13] = conditions: ref Hanssen et al. ([2014]); cited from earlier work; remark: listed apart in the source
marine bacteria = conditions: panel of marine bacteria; ref Hanssen et al. [2014]; cited from earlier work
Shewanella putrefaciens = conditions: ref Hanssen et al. ([2014]); cited from earlier work
Vibrio aestuarianus [14] = conditions: ref Hanssen et al. ([2014]); cited from earlier work; remark: listed apart in the source
Porphyridium purpureum [15] = conditions: ref Hanssen et al. ([2014]); cited from earlier work
Halamphora coffeaeformis [16] = conditions: ref Hanssen et al. ([2014]); cited from earlier work
Porphyridium purpureum [17] = conditions: ref Hanssen et al. ([2014]); cited from earlier work; remark: listed apart in the source
Roseobacter litoralis = conditions: ref Hanssen et al. ([2014]); cited from earlier work
Halamphora coffeaeformis [18] = conditions: ref Hanssen et al. ([2014]); cited from earlier work; remark: listed apart in the source
[19] = system: Pleurochrysis roscoffensis; conditions: ref Hanssen et al. ([2014]); cited from earlier work
[20] = system: Pleurochrysis roscoffensis; conditions: ref Hanssen et al. ([2014]); cited from earlier work; remark: listed apart in the source

Compound: COc1c(Br)cc(C/C(=N\O)C(=O)NCCc2c[nH]c(=N)[nH]2)cc1Br [Ianthelline, ianthelline]
- MIC against the adhesion of marine bacteria, V.c. (Vibrio carchariae [1]): – (Not active at > 10 μg/mL)
- MIC against the adhesion of marine bacteria, V.p. (Vibrio proteolyticus [2]): – (Not active at > 10 μg/mL)
- MIC against the growth of marine bacteria, P.e. [3]: 1 µg/mL
- antialgal activity, in words (microalgae): poor antialgal activity
- MIC against the adhesion of marine bacteria, V.h. (Vibrio harveyi [4]): – (Not active at > 10 μg/mL)
- MIC against the adhesion of marine bacteria, H.a. (Halomonas aquamarina [5]): – (Not active at > 10 μg/mL)
- IC50 (cyprid settlement inhibition) [6]: 3.0 µg/mL (≈ 6.31 µM)
- Toxicity (%) (dead cyprids) ([6]; reported at 5 μg/mL): 10.0%
- MIC against the growth of marine bacteria, V.h. (Vibrio harveyi [7]): 10 µg/mL
- MIC against the adhesion (A) of microalgae, C. closterium (Cylindrotheca closterium [8]): > 10 µg/mL
- MIC against the adhesion of marine bacteria, V.a. (Vibrio aestuarianus [9]): 0.1 µg/mL
- MIC against the growth (G) of microalgae, C. closterium (Cylindrotheca closterium [10]): > 10 µg/mL
- MIC against the growth of marine bacteria, V.c. (Vibrio carchariae [11]): – (Not active at > 10 μg/mL)
- MIC against the growth of marine bacteria, H.a. (Halomonas aquamarina [12]): – (Not active at > 10 μg/mL)
- MIC against the growth of marine bacteria, V.n. (Vibrio natriegens): – (Not active at > 10 μg/mL)
- MIC against the growth of marine bacteria, V.p. (Vibrio proteolyticus [13]): 10 µg/mL
- Inhibition of bacterial adhesion, in general (marine bacteria): not effective
- MIC against the growth of marine bacteria, S.p. (Shewanella putrefaciens): 0.1 µg/mL
- MIC against the growth of marine bacteria, V.a. (Vibrio aestuarianus [14]): 0.1 µg/mL
- MIC against the growth (G) of microalgae, P. purpureum (Porphyridium purpureum [15]): > 10 µg/mL
- MIC against the adhesion (A) of microalgae, H. coffeaformis (Halamphora coffeaeformis [16]): > 10 µg/mL
- MIC against the adhesion (A) of microalgae, P. purpureum (Porphyridium purpureum [17]): > 10 µg/mL
- MIC against the growth of marine bacteria, R.l. (Roseobacter litoralis): 1 µg/mL
- MIC against the growth (G) of microalgae, H. coffeaformis (Halamphora coffeaeformis [18]): > 10 µg/mL
- MIC against the adhesion (A) of microalgae, P. roscoffensis [19]: > 10 µg/mL
- MIC against the growth (G) of microalgae, P. roscoffensis [20]: 10 µg/mL
